Source: patent US9763443B2, “Control of bed bugs” (Ensystex Inc., priority 2011, dated 2017)

Tests used:
humans and animals = settings: even when applied directly to a subject's skin; cited from earlier work
bed bugs [1] = test: Toxicity and durability of toxicity of undiluted DMSO on filter paper in arenas (Example 1A); assay type: in vivo
Method: 0.1 milliliters of Fisher Biotech Molecular Biology Grade 99.7% DMSO (CAS#67-68-5) was applied to each of five 3.5 cm diameter disks of Fisherbrand Qualitative P8 filter paper. […] The arenas were placed in an incubator set to maintain a temperature of 22° C.
At the end of 24 hours, timed from the initial placement of the bed bugs on the filter papers, all of the arenas were removed from the incubator and opened and the bed bugs were examined. […] The bed bugs in the control jar were all still alive.
Without removing the filter paper, the dead bed bugs in the 5 arenas were removed and replaced by the same number (10) of live bed bugs in each arena. The arenas were again placed in the incubator and re-examined 24 hours later. The replacement bed bugs in the 5 arenas were also all dead.
All of the bed bugs in the control jar were all still alive at the end of the last testing interval.

bed bugs [2] = test: Repellency to bed bugs, general finding; assay type: in vivo; settings: with or without additional insecticidal active ingredient, any DMSO concentration
bed bugs [3] = test: Contact toxicity to bed bugs, general findings in the description; assay type: in vivo

Row | SMILES | toxicity in exposure to humans and animals (humans and animals) | bed bug mortality at end of 24 hours (bed bugs [1]; 0.1 mL 99.7% DMSO on 3.5 cm filter paper, 5 arenas, 10 bed bugs each, 22° C., first 24 hours) | mortality at end of each 24 hour interval, three more replications (bed bugs [1]; same filter paper, replications 3 to 5 at 24 hour intervals) | mortality of replacement bed bugs 24 hours later (bed bugs [1]; same filter paper, second 24 hour interval, 10 live bed bugs per arena) | repellency effects (bed bugs [2]) | toxicity to bed bugs upon contact (bed bugs [3]; DMSO alone, no insecticidal active ingredient or synergist) | toxicity-enhancing characteristics (bed bugs [3]; as penetration enhancer in insecticidal formulations)
1 | C[S+](C)[O-] [DMSO, dimethyl sulfoxide] | low toxicity | All of the bed bugs in all 5 of the jars containing DMSO treated filter paper were dead | all bed bugs found to be dead | also all dead | not accompanied by any repellency effects | highly toxic to bed bugs upon contact | 
2 | CCCCCCCCCCCCN1CCCCCC1=O [laurocapram, reference compound] |  |  |  |  |  |  | exhibits toxicity-enhancing characteristics similar to DMSO
